Measured values: PMC11370402 (bioRxiv, 2024)

Test system: human tracheobronchial epithelial cells (hTECs) basal-ESC growth
Test: hTEC growth in submerged 2D culture
Type: cell-based

O=c1ncn2nc(Sc3ccc(F)cc3F)ccc2c1-c1c(Cl)cccc1Cl [NuP-401, VX-745]
effect on basal cell growth: not found
